Measured values taken from ChEMBL document CHEMBL5042472, “Design, Synthesis, and Biological Evaluation of a Novel Photocaged PI3K Inhibitor toward Precise Cancer Treatment” (J Med Chem, 2021).
Activity calls are given as the source filed them. The calls are words filed in the database; no cut-off is given here.

Assays:
BGC-823 [1] = assay: Antiproliferative activity against human BGC-823 cells assessed as reduction in cell viability irradiated with 365 nm of UV for 5 mins and incubated in dark for 96 hrs by MTT assay; type: functional, cell-based; settings: BGC-823, light or radiation study
[2] = Retention time of the compound by HPLC analysis; type: physicochemical
HCT-116 [3] = assay: Antiproliferative activity against human HCT-116 cells assessed as reduction in cell viability irradiated with 365 nm of UV for 5 mins and incubated in dark for 96 hrs by MTT assay; type: functional, cell-based; settings: HCT-116, light or radiation study
[4] = Photo stability of compound assessed as release of 2,4-difluoro-N-(2-methoxy-5-(4-methyl-8-(tetrahydro-2H-pyran-4-yloxy)quinazolin-6-yl)pyridin-3-yl)benzenesulfonamide by measuring half life irradiated with 365 nm of UV for 5 min measured by HPLC analysis; type: physicochemical
[5] = Stability of the compound in dark condition at room temperature after 6 month; type: physicochemical; settings: 4380 h; time 6 months
[6] = target: T1, Phosphatidylinositol 4,5-bisphosphate 3-kinase catalytic subunit alpha isoform (Homo sapiens, UniProt P42336); assay: Inhibition of PI3K alpha (unknown origin) using PIP2 as substrate incubated in dark at room temperature for 1 hr in presence of ATP by ADP-Glo luminescent assay
T1 sequence (P42336 whole entry, canonical isoform): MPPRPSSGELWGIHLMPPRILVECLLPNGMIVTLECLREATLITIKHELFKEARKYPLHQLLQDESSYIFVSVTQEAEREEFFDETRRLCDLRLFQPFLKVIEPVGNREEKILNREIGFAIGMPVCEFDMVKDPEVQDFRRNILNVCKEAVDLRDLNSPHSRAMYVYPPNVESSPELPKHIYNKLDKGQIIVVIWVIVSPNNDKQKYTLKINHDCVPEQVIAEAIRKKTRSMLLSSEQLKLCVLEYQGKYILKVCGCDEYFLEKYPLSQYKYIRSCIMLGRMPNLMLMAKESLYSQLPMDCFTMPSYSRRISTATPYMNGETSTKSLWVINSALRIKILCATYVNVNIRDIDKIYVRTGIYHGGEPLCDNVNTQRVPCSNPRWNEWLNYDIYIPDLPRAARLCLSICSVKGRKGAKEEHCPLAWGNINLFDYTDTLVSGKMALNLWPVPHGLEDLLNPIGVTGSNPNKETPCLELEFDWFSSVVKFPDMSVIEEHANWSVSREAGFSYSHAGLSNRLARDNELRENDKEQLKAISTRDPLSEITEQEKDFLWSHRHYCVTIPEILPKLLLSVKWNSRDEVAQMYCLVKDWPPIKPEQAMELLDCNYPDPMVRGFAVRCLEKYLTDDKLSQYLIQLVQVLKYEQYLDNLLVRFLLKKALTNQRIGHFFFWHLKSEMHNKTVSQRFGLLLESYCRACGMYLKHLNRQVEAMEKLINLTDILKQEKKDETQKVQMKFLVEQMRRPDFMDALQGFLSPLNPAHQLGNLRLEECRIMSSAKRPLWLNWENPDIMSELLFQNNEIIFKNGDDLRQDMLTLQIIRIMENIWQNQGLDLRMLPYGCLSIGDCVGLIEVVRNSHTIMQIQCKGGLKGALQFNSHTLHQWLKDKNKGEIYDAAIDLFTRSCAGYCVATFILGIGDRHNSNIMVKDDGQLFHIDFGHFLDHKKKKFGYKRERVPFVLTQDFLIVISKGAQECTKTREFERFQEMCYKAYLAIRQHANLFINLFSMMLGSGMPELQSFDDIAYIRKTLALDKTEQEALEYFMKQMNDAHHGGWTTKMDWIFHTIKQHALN

[7] = target: Phosphatidylinositol 4,5-bisphosphate 3-kinase catalytic subunit beta isoform (Homo sapiens, UniProt P42338); assay: Inhibition of PI3K beta (unknown origin) using PIP2 as substrate incubated in dark at room temperature for 1 hr in presence of ATP by ADP-Glo luminescent assay
Phosphatidylinositol 4,5-bisphosphate 3-kinase catalytic subunit beta isoform, sequence (P42338 whole entry, canonical isoform): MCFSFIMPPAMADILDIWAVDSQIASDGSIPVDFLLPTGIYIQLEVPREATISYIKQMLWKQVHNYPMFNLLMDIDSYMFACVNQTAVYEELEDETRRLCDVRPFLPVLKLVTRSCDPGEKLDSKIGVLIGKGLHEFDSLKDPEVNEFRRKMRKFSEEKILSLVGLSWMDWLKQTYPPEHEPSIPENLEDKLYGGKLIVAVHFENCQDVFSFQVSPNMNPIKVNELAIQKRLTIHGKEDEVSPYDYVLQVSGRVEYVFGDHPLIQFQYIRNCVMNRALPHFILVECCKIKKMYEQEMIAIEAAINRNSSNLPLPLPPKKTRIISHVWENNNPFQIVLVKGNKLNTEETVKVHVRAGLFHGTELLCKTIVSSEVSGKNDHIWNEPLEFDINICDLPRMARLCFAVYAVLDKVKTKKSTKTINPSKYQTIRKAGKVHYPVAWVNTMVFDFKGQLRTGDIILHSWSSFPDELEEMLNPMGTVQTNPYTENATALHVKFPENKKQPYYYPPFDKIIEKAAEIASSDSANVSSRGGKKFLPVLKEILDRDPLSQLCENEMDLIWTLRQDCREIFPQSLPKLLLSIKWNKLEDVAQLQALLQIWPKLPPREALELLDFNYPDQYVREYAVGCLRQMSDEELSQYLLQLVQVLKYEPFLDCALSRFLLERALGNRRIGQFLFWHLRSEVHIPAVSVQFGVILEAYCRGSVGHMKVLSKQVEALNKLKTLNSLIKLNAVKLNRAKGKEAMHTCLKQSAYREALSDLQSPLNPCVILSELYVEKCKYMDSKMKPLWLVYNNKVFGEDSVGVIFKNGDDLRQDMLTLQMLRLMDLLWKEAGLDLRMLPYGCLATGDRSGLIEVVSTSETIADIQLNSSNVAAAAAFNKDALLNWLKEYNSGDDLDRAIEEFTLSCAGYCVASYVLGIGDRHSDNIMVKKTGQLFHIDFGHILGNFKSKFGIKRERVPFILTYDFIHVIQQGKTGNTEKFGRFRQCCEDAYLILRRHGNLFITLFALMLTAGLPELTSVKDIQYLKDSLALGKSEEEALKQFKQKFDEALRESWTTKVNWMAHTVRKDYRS

[8] = target: Phosphatidylinositol 4,5-bisphosphate 3-kinase catalytic subunit gamma isoform (Homo sapiens, UniProt P48736); assay: Inhibition of PI3K gamma (unknown origin) using PIP2 as substrate incubated in dark at room temperature for 1 hr in presence of ATP by ADP-Glo luminescent assay
Phosphatidylinositol 4,5-bisphosphate 3-kinase catalytic subunit gamma isoform, sequence (P48736 whole entry, canonical isoform): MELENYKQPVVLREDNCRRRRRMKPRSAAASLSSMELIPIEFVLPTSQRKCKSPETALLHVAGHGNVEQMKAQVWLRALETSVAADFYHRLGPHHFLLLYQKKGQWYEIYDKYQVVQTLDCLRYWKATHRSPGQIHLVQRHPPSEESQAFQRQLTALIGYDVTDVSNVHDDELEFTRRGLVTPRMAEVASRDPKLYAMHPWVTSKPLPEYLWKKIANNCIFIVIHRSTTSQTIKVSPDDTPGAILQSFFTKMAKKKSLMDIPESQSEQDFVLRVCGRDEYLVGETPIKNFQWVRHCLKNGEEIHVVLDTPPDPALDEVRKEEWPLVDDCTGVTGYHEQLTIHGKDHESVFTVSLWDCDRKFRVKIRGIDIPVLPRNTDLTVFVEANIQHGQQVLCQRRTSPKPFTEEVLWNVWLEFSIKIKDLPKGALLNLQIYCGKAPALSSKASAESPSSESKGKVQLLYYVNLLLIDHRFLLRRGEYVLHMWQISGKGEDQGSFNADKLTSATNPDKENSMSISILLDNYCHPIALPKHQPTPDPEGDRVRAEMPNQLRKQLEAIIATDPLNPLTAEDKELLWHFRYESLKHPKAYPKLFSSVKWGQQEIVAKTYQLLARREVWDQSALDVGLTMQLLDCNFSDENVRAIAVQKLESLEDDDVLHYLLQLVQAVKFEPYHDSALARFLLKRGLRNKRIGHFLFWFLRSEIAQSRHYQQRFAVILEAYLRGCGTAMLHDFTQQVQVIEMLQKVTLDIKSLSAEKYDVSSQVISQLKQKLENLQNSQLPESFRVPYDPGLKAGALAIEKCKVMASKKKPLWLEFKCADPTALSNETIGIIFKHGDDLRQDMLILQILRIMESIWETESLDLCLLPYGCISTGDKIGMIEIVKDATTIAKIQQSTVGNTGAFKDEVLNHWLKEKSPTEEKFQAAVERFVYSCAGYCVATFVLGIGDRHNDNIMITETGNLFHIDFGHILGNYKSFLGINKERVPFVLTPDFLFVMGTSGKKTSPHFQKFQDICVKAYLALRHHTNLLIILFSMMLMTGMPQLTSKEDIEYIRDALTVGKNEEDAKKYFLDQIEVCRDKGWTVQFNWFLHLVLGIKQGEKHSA

[9] = target: T2, Phosphatidylinositol 4,5-bisphosphate 3-kinase catalytic subunit delta isoform (Homo sapiens, UniProt O00329); assay: Inhibition of PI3K delta (unknown origin) using PIP2 as substrate incubated in dark at room temperature for 1 hr in presence of ATP by ADP-Glo luminescent assay
T2 sequence (O00329 whole entry): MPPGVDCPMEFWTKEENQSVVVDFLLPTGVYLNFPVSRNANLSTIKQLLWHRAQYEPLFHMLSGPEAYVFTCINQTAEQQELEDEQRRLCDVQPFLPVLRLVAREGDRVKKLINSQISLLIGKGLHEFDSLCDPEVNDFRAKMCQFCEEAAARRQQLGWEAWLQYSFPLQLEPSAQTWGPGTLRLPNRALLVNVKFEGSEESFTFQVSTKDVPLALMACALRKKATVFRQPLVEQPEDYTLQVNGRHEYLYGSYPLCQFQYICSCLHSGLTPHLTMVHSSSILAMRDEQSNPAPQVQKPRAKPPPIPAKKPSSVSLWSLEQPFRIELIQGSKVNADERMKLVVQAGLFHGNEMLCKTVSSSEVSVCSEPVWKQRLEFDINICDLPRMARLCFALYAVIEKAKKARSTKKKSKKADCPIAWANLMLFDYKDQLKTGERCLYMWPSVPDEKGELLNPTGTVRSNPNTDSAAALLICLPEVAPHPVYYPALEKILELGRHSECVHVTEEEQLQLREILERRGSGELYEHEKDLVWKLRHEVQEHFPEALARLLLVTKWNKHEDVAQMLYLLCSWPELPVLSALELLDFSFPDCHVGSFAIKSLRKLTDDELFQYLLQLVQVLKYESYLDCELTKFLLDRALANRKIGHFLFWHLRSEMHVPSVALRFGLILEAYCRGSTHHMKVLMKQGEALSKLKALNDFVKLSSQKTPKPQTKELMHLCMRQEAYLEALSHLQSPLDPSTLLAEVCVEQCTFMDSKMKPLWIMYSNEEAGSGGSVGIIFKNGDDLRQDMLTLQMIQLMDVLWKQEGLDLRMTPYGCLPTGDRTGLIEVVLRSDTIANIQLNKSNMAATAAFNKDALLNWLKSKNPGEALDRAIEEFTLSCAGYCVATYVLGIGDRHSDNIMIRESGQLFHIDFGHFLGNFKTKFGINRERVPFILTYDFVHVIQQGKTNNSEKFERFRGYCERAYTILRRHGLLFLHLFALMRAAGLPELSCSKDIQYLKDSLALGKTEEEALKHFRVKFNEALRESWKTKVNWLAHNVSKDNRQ

[10] = target: T1, Phosphatidylinositol 4,5-bisphosphate 3-kinase catalytic subunit alpha isoform; assay: Inhibition of PI3K alpha (unknown origin) using PIP2 as substrate irradiated with 365 nm of UV exposure for 2 mins and incubation in dark at room temperature for 1 hr in presence of ATP measured by ADP-Glo luminescent assay
BGC-823 [11] = assay: Antiproliferative activity against human BGC-823 cells assessed as reduction in cell viability incubated in dark for 96 hrs by MTT assay; type: functional, cell-based; settings: BGC-823, 96 h
MGC-803 [12] = assay: Antiproliferative activity against human MGC-803 cells assessed as reduction in cell viability incubated in dark for 96 hrs by MTT assay; type: functional, cell-based; settings: MGC-803, 96 h
MGC-803 [13] = assay: Antiproliferative activity against human MGC-803 cells assessed as reduction in cell viability irradiated with 365 nm of UV for 5 mins and incubated in dark for 96 hrs by MTT assay; type: functional, cell-based; settings: MGC-803, light or radiation study
AGS [14] = assay: Antiproliferative activity against human AGS cells assessed as reduction in cell viability incubated in dark for 96 hrs by MTT assay; type: functional, cell-based
AGS [15] = assay: Antiproliferative activity against human AGS cells assessed as reduction in cell viability irradiated with 365 nm of UV for 5 mins and incubated in dark for 96 hrs by MTT assay; type: functional, cell-based; settings: light or radiation study
HGC-27 [16] = assay: Antiproliferative activity against human HGC-27 cells assessed as reduction in cell viability incubated in dark for 96 hrs by MTT assay; type: functional, cell-based; settings: HGC-27, 96 h
HGC-27 [17] = assay: Antiproliferative activity against human HGC-27 cells assessed as reduction in cell viability irradiated with 365 nm of UV for 5 mins and incubated in dark for 96 hrs by MTT assay; type: functional, cell-based; settings: HGC-27, light or radiation study
HCT-116 [18] = assay: Antiproliferative activity against human HCT-116 cells assessed as reduction in cell viability incubated in dark for 96 hrs by MTT assay; type: functional, cell-based; settings: HCT-116, 96 h
MG-63 [19] = assay: Antiproliferative activity against human MG-63 cells assessed as reduction in cell viability incubated in dark for 96 hrs by MTT assay; type: functional, cell-based; settings: MG-63, 96 h
MG-63 [20] = assay: Antiproliferative activity against human MG-63 cells assessed as reduction in cell viability irradiated with 365 nm of UV for 5 mins and incubated in dark for 96 hrs by MTT assay; type: functional, cell-based; settings: MG-63, light or radiation study
[21] = Plasma protein binding in rat at 1 uM by LC-MS/MS analysis; type: ADME, cell-free; settings: read-out: PPB (converted)
[22] = Stability in rat plasma assessed as half life at 1 uM measured upto 120 min by LC-MS/MS analysis; type: ADME, cell-free
[23] = Stability in rat liver microsomes assessed as half life at 1 uM in presence of NADPH by LC-MS/MS analysis; type: ADME, Microsome
[24] = Apparent permeability across apical to basolateral side in human Caco-2 cells at 10 uM incubated for 2 hrs by LC-MS/MS analysis; type: ADME, cell-based
[25] = Apparent permeability across basolateral to apical side in human Caco-2 cells at 10 uM incubated for 2 hrs by LC-MS/MS analysis; type: ADME, cell-based
HCT-116 [26] = assay: Inhibition of PI3K/AKT signalling pathway in human HCT-116 cells assessed as downregulation of AKT phosphorylation at Ser473 residue at 100 nM irradiated with 365 nm UV light for 5 mins and incubated for 24 hrs by Western blot; type: cell-based

- IC50 (BGC-823 [1]): 103 nM
- Retention_time [2]: 4.7 min
- IC50 (HCT-116 [3]): 81 nM
- t1/2 [4]: 5 min
- Stability [5]: Stable
- IC50 [6]: 343 nM
- IC50 [7]: 838 nM
- IC50 [8]: 4470 nM
- IC50 [9]: 3010 nM
- IC50 [10]: 0.58 nM
- IC50 (BGC-823 [11]): 2360 nM
- IC50 (MGC-803 [12]): 1740 nM
- IC50 (MGC-803 [13]): 329 nM
- IC50 (AGS [14]): 924 nM
- IC50 (AGS [15]): 70.3 nM
- IC50 (HCT-116 [18]): 1460 nM
- fraction unbound at 1 µM [21]: 0.006
- half-life at 1 µM [22]: > 120 min
- half-life at 1 µM [23]: 1.82 min
- Papp A→B at 2 h, 10 µM [24]: 0.49 ×10⁻⁶ cm/s
- Papp B→A at 2 h, 10 µM [25]: 1.95 ×10⁻⁶ cm/s
SMILES: COc1cc(CN(c2cc(-c3cc(OC4CCOCC4)c4ncnc(C)c4c3)cnc2OC)S(=O)(=O)c2ccc(F)cc2F)c([N+](=O)[O-])cc1OC
- IC50 (HGC-27 [16]): 248 nM
- IC50 (HGC-27 [17]): 13.8 nM
- IC50 (MG-63 [19]): 1840 nM
- IC50 (MG-63 [20]): 142 nM
- inhibition (HCT-116 [26]): Active
